PubChem BioAssay (NCI)
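Method: 48-hour compound exposure of cells in 96-well plates, five concentrations, linear interpolation of endpoints. Abbreviation: GI50, concentration required for 50% inhibition of growth. Definition used: TGI = concentration required for complete inhibition of growth.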

system: A549 NSCLC; test: DTP human tumour cell line panel, 48 h

| Compound | TGI [µM] | GI50 [µM] |
| --- | --- | --- |
| CCOC(=O)C1=C(Nc2ccc(Br)cc2)OCC1=O | > 100 |  |
| CCOc1ccc(N=Cc2c3ccccc3nc3ccccc23)cc1 | > 100 |  |
| Nc1ccc(C2=N/C(=C\c3cccc(N)c3)C(=O)O2)cc1 | > 100 |  |
| CC(=O)[CH-]C(=O)c1ccccc1.CC(=O)[CH-]C(=O)c1ccccc1.O=S(=O)([O-])c1cc([O-])c2c([O-])cc(S(=O)(=O)[O-])cc2c1.[Na+].[Ti+4] | > 100 | > 100 |
| NCCN.O=C([O-])[O-].O=C([O-])[O-].[Co+3].[K+] | > 100 | > 100 |
| C1=NC(N(Cc2ccccc2)Cc2ccccc2)N(Cc2ccccc2)N1 (stereo not drawn) | 37.3 |  |

system: 786-0 renal; test: DTP human tumour cell line panel, 48 h

| Compound | TGI [µM] | GI50 [µM] |
| --- | --- | --- |
| CCc1cccc(C)c1NC(=O)CC1C(=O)Nc2ccccc2S1=O (stereo not drawn) | > 100 |  |
| Cc1ccc(N2C(=O)N(c3ccc(C)cc3)C3(SC=NN3C)C2=O)cc1 (stereo not drawn) | > 100 |  |
| O=C1c2ccc3c4ccccc4n(-c4ccccc4)c3c2C(=O)N1c1ccc(Cl)cc1 | > 100 |  |
| Cc1ccc2c(c1-c1ccccc1)C(=O)OC2 | > 100 |  |
| CCC[CH2][Sn]1([CH2]CCC)[O]CC(COc2c(Cl)cc(Cl)cc2Cl)[O]1 (stereo not drawn) | 2.74 | 1.41 |
| NC(CCc1ncc(C(=O)O)s1)C(=O)O (stereo not drawn) | > 100 |  |
| CSc1ccc2c(cc1=O)[C@@H](NC(=O)c1cc(O)c(O)c(O)c1)CCc1cc(O)c(O)c(O)c1-2 | > 100 |  |
| CNCCn1c(=O)c2cc(OC)c(OC)cc2c2cnc3cc4c(cc3c21)OCO4 | 0.0168 | < 0.01 |
| COc1cc(-c2nnc3n2NC=C(C(=O)O)S3)cc(OC)c1OC | > 76.3 |  |
| C[P+](C)(C)c1ccccc1 | > 100 |  |
| O=C1c2ccccc2C(=O)N1C/C=N/NS(=O)(=O)c1ccc(Br)cc1 | > 100 |  |
| COc1ccc(-c2noc(N)c2-c2cc(OC)c3c(c2)OCO3)cc1 | > 100 | 8.36 |
| NC(=O)c1cn(Cc2ccccc2)c(=O)n1Cc1ccccc1 | > 100 |  |
| CCOC(=O)C(C)(c1c(C)[nH]c2ccccc12)c1c(C)[nH]c2ccccc12 | 43 |  |
| Cc1c(Cl)cccc1NC(=O)c1cccc([N+](=O)[O-])c1O | > 78.1 |  |
| CC1COS(=O)O1 (stereo not drawn) | > 100 |  |
| CC1CCC(C(C)(C)c2ccccc2)C(=O)C1 (stereo not drawn) | > 100 |  |
| CC1(C)N=C(N)N=C(N)N1c1cccc(OCCOc2cccc([N+](=O)[O-])c2)c1 | > 100 | 37 |
| O=C(NC1CCCCC1)c1ccc(Nc2ncnc3c2cnn3-c2ccccc2)cc1 | 18.3 | 3.47 |
| O=C1CC2CCN(C(=O)c3ccccc3)CC2CCN1 (stereo not drawn) | > 100 |  |

| Compound | TGI [µM] | GI50 [µM] |
| --- | --- | --- |
| N#CC(C#N)=C1CCCOc2c1ccc1ccccc21 | > 100 | 88.2 |
| O=C1C=CC(=CC=C2C=CN(CCCCCCCCCCC(=O)NCCCCCCCCCCCC(=O)O)C=C2)C=C1 | > 100 |  |
| N#Cc1c(-c2ccco2)cc(-c2ccc(N)cc2)[nH]c1=O | > 100 |  |
| C=CCC1(C)CCCCC1(O)CS(=O)c1ccccc1 (stereo not drawn) | > 100 |  |
| C1COCCSC2=C(SCCO1)SC(=C1SC3=C(SCCOCCOCCS3)S1)S2 | > 100 |  |
| COc1cc(C(=O)O[C@H](C(N)=O)[C@]2(C)CO2)c2cccc(C)c2c1 | 5.75 | 2.31 |
| O=C(Nc1ccc(Cl)cc1)Nc1nccs1 | > 100 | 11.1 |
| COc1cc(/C=N\O[Si](C)(C)C(C)(C)C)ccc1O[Si](C)(C)C(C)(C)C | > 100 |  |
| CC12CCC(=O)N1c1cccnc1N2 (stereo not drawn) | > 100 |  |
| COc1cc2c(cc1OC)C1Cc3cc(OC)c(OC)cc3N1CC2 (stereo not drawn) | 37.9 |  |
| O=C(N/N=C/c1ccc(O)cc1O)c1cccnc1 | > 100 | 4.28 |
| O=C(NNc1cnccn1)c1nc2cc(F)ccc2n2cccc12 | > 100 | 0.572 |
| O=C1C2[C@@H](C(=O)N1c1ccc(Br)cc1)C13C(=CC2([N+](=O)[O-])[C@@H]2C(=O)N(c4ccc(Br)cc4)C(=O)[C@@H]21)c1ccccc1N3c1ccccc1 (stereo partly drawn) | 31.1 |  |
| O=C1/C(=C/N2N=C(c3ccc4ccccc4c3)CC2c2ccccc2O)SC(=S)N1c1cccnc1 (stereo not drawn) | > 100 | 0.492 |
| CCOC(=O)C1=C(Nc2ccc(Br)cc2)OCC1=O | > 100 |  |
| CCOc1ccc(N=Cc2c3ccccc3nc3ccccc23)cc1 | > 100 |  |
| Nc1ccc(C2=N/C(=C\c3cccc(N)c3)C(=O)O2)cc1 | > 100 |  |
| CC(=O)[CH-]C(=O)c1ccccc1.CC(=O)[CH-]C(=O)c1ccccc1.O=S(=O)([O-])c1cc([O-])c2c([O-])cc(S(=O)(=O)[O-])cc2c1.[Na+].[Ti+4] | > 100 | > 100 |
| NCCN.O=C([O-])[O-].O=C([O-])[O-].[Co+3].[K+] | > 100 | > 100 |
| C1=NC(N(Cc2ccccc2)Cc2ccccc2)N(Cc2ccccc2)N1 (stereo not drawn) | 35.4 |  |

system: LOX IMVI melanoma; test: DTP human tumour cell line panel, 48 h

| Compound | TGI [µM] | GI50 [µM] |
| --- | --- | --- |
| CCc1cccc(C)c1NC(=O)CC1C(=O)Nc2ccccc2S1=O (stereo not drawn) | > 100 |  |
| Cc1ccc(N2C(=O)N(c3ccc(C)cc3)C3(SC=NN3C)C2=O)cc1 (stereo not drawn) | > 100 |  |
| O=C1c2ccc3c4ccccc4n(-c4ccccc4)c3c2C(=O)N1c1ccc(Cl)cc1 | > 100 |  |
| NC(CCc1ncc(C(=O)O)s1)C(=O)O (stereo not drawn) | > 100 |  |
| CNCCn1c(=O)c2cc(OC)c(OC)cc2c2cnc3cc4c(cc3c21)OCO4 | 0.1 | < 0.01 |
| COc1cc(-c2nnc3n2NC=C(C(=O)O)S3)cc(OC)c1OC | > 100 |  |
| C[P+](C)(C)c1ccccc1 | > 100 |  |
| COc1ccc(-c2noc(N)c2-c2cc(OC)c3c(c2)OCO3)cc1 | > 100 | 4.02 |
| NC(=O)c1cn(Cc2ccccc2)c(=O)n1Cc1ccccc1 | > 100 |  |
| Cc1c(Cl)cccc1NC(=O)c1cccc([N+](=O)[O-])c1O | 36.3 |  |
| CC1COS(=O)O1 (stereo not drawn) | > 100 |  |
| CC1CCC(C(C)(C)c2ccccc2)C(=O)C1 (stereo not drawn) | > 100 |  |
| CC1(C)N=C(N)N=C(N)N1c1cccc(OCCOc2cccc([N+](=O)[O-])c2)c1 | > 100 | 2.15 |
| O=C(NC1CCCCC1)c1ccc(Nc2ncnc3c2cnn3-c2ccccc2)cc1 | 22.3 | 4.49 |
| O=C1CC2CCN(C(=O)c3ccccc3)CC2CCN1 (stereo not drawn) | > 100 |  |
| O=C1C=CC(=CC=C2C=CN(CCCCCCCCCCC(=O)NCCCCCCCCCCCC(=O)O)C=C2)C=C1 | > 100 |  |
| N#Cc1c(-c2ccco2)cc(-c2ccc(N)cc2)[nH]c1=O | > 100 |  |
| C=CCC1(C)CCCCC1(O)CS(=O)c1ccccc1 (stereo not drawn) | > 100 |  |
| C1COCCSC2=C(SCCO1)SC(=C1SC3=C(SCCOCCOCCS3)S1)S2 | > 100 |  |
| O=C(Nc1ccc(Cl)cc1)Nc1nccs1 | > 100 | 0.786 |
| COc1cc(/C=N\O[Si](C)(C)C(C)(C)C)ccc1O[Si](C)(C)C(C)(C)C | 62 |  |
| CC12CCC(=O)N1c1cccnc1N2 (stereo not drawn) | > 100 |  |
| O=C(N/N=C/c1ccc(O)cc1O)c1cccnc1 | > 100 | 1.84 |
| O=C1C2[C@@H](C(=O)N1c1ccc(Br)cc1)C13C(=CC2([N+](=O)[O-])[C@@H]2C(=O)N(c4ccc(Br)cc4)C(=O)[C@@H]21)c1ccccc1N3c1ccccc1 (stereo partly drawn) | > 100 |  |
| O=C1/C(=C/N2N=C(c3ccc4ccccc4c3)CC2c2ccccc2O)SC(=S)N1c1cccnc1 (stereo not drawn) | > 100 | 1.24 |
| CCOc1ccc(N=Cc2c3ccccc3nc3ccccc23)cc1 | > 100 |  |
| CC(=O)[CH-]C(=O)c1ccccc1.CC(=O)[CH-]C(=O)c1ccccc1.O=S(=O)([O-])c1cc([O-])c2c([O-])cc(S(=O)(=O)[O-])cc2c1.[Na+].[Ti+4] | > 100 | > 100 |
| NCCN.O=C([O-])[O-].O=C([O-])[O-].[Co+3].[K+] | > 100 | > 100 |
| C1=NC(N(Cc2ccccc2)Cc2ccccc2)N(Cc2ccccc2)N1 (stereo not drawn) | 30.4 |  |

system: OVCAR-5 ovarian; test: DTP human tumour cell line panel, 48 h

| Compound | TGI [µM] | GI50 [µM] |
| --- | --- | --- |
| CCc1cccc(C)c1NC(=O)CC1C(=O)Nc2ccccc2S1=O (stereo not drawn) | > 100 |  |
| O=C1c2ccc3c4ccccc4n(-c4ccccc4)c3c2C(=O)N1c1ccc(Cl)cc1 | > 100 |  |
| CCC[CH2][Sn]1([CH2]CCC)[O]CC(COc2c(Cl)cc(Cl)cc2Cl)[O]1 (stereo not drawn) | 3.46 | 2.02 |
| CSc1ccc2c(cc1=O)[C@@H](NC(=O)c1cc(O)c(O)c(O)c1)CCc1cc(O)c(O)c(O)c1-2 | 31.3 |  |
| CNCCn1c(=O)c2cc(OC)c(OC)cc2c2cnc3cc4c(cc3c21)OCO4 | 0.304 | 0.0259 |
| COc1cc(-c2nnc3n2NC=C(C(=O)O)S3)cc(OC)c1OC | > 100 |  |
| C[P+](C)(C)c1ccccc1 | > 100 |  |
